Earlier results as cited in patent US20140315870A1, “COMPOSITION COMPRISING A GLUCOCORTICOID AND A THIAZOLIDINEDIONE FOR INDUCING COMPELTE ADIPOGENIC DIFFERENTIATION OF MAMMALIAN STEM CELLS” (UNIVERSIDAD DEL DESARROLLO, priority 2011, published 2014).

Conditions: chronic consumption in humans

CN(CCOc1ccc(CC2SC(=O)NC2=O)cc1)c1ccccn1 (stereo not shown) [rosiglitazone]
increase in the chance for cardiovascular accidents: 50%
